According to ChEMBL document CHEMBL3243923, “Linked Aryl Aryloxypropanolamines as a new class of lipid catabolis agents” (J Med Chem, 1978):
Active and inactive are the calls of the source. The calls are words filed in the database; no cut-off is given here.

How the values were obtained:
[1] = tested on: Mus musculus; experiment: Antiobesity activity in mouse assessed as reduction in utero fat at 0.04% administered every day through diet for 10 days measured after day 10 relative to control; assay type: functional
[2] = tested on: Mus musculus; experiment: Antiobesity activity in mouse assessed as reduction in utero fat administered every day through diet for 10 days measured after day 10; assay type: functional; settings: 240 h
[3] = Chronic toxicity in po dosed mouse assessed as mortality administered as qd for 21 days; assay type: organism-based; settings: in vivo, read-out: MNTD
[4] = Therapeutic index, ratio of MNTD for chronic toxicity in po dosed mouse to ED25 for antiobesity activity in mouse assessed as reduction in utero fat; assay type: organism-based; settings: in vivo, read-out: TI
[5] = tested on: Mus musculus; experiment: Toxicity in mouse assessed as liver hypertrophy at 1000 mg/kg, po administered for 21 days; assay type: organism-based; set-up: dose 1000 mg/kg, route oral; settings: in vivo, 504 h
[6] = tested on: Mus musculus; experiment: Antiobesity activity in mouse assessed as reduction in utero fat at 0.02% administered every day through diet for 10 days measured after day 10 relative to control; assay type: functional; set-up: scale not given: the % may be the effect or the level left

SMILES | Activity [1] | further results
CC(C)NCC(O)COc1c(C(C)(C)C)cc(/C=C/c2ccc3ccccc3c2)cc1C(C)(C)C (configuration not stated) | inactive | 
CC(C)NCC(O)COc1c(C(C)(C)C)cc(C#Cc2ccccc2)cc1C(C)(C)C.O=C(O)/C=C\C(=O)O (configuration not stated) | 25% | 
CC(C)NCC(O)COc1c(C(C)(C)C)cc(S(=O)(=O)c2ccc(Cl)cc2)cc1C(C)(C)C (configuration not stated) | inactive | 
CNCC(O)COc1c(C(C)(C)C)cc(/C=C/c2ccccc2)cc1C(C)(C)C.O.O=C(O)C(=O)O (configuration not stated) | 44% | 
CC(C)NCC(O)COc1c(C(C)(C)C)cc(S(=O)(=O)c2ccccc2)cc1C(C)(C)C (configuration not stated) | inactive | 
CN(C)CCCNCC(O)COc1c(C(C)(C)C)cc(/C=C/c2ccccc2)cc1C(C)(C)C.Cl (configuration not stated) | 45% | 
CC(C)NCC(O)COc1ccc(-c2ccc(Cl)cc2)cc1.Cl (configuration not stated) | 23% | ED25 [2]: 50 mg/kg; MTD at 504 h [3]: 25 mg/kg; selectivity ratio [4]: 0.5; Activity [5]: Non-toxic
CC(C)NCC(O)COc1c(C(C)(C)C)cc(Sc2ccc(Cl)cc2)cc1C(C)(C)C (configuration not stated) | inactive | 
Cc1ccc(/C=C/c2cc(C(C)(C)C)c(OCC(O)CNC(C)C)c(C(C)(C)C)c2)cc1 (configuration not stated) | inactive | 
CCc1cc(/C=C/c2ccccc2F)cc(CC)c1OCC(O)CNC(C)C (configuration not stated) | 37% | 
CC(C)(C)c1cc(/C=C/c2ccccc2)cc(C(C)(C)C)c1OCC(O)CNC1CCCCC1 (configuration not stated) | 24% | 
CC(C)NCC(O)COc1c(C(C)(C)C)cc([S+]([O-])c2ccccc2)cc1C(C)(C)C (configuration not stated) | inactive | 
CC(C)NCC(O)COc1c(C(C)(C)C)cc(/C=C/c2ccc(O)cc2)cc1C(C)(C)C.O=C(O)/C=C\C(=O)O (configuration not stated) |  | Activity [6]: 20%
CC(C)(C)c1cc(/C=C/c2ccccc2)cc(C(C)(C)C)c1OCC(O)CNCCNC(=O)Nc1ccccc1 (configuration not stated) | inactive | 
CC(C)NCC(O)COc1c(C(C)(C)C)cc(CCc2ccccc2)cc1C(C)(C)C (configuration not stated) | inactive | 
CC(C)NCC(O)COc1c(C(C)(C)C)cc(Oc2ccccc2)cc1C(C)(C)C.O=C(O)/C=C\C(=O)O (configuration not stated) | 20% | ED25 [2]: 20 mg/kg; MTD at 504 h [3]: 100 mg/kg; Activity [5]: Non-toxic
CCN(CC)CCCNCC(O)COc1c(C(C)(C)C)cc(/C=C/c2ccccc2)cc1C(C)(C)C (configuration not stated) | inactive | 
Cc1ccc(/C=C/c2cc(C(C)(C)C)c(OCC(O)CNC(C)C)c(C(C)(C)C)c2)cc1C (configuration not stated) | inactive | 
CC(C)NCC(O)COc1ccc(/C=C/c2ccncc2)cc1 (configuration not stated) | 24% | 
CC(C)NCC(O)COc1c(C(C)(C)C)cc(/C=C/c2ccc(C(C)(C)C)cc2)cc1C(C)(C)C (configuration not stated) | inactive | 
CN(C)CCNCC(O)COc1c(C(C)(C)C)cc(/C=C/c2ccccc2)cc1C(C)(C)C (configuration not stated) | inactive | 
CC(C)NCC(O)COc1c(C2CCCCC2)cc(/C=C/c2ccccc2)cc1C1CCCCC1.O=C(O)/C=C\C(=O)O (configuration not stated) | 27% | ED25 [2]: 38 mg/kg; MTD at 504 h [3]: 100 mg/kg; Activity [5]: Non-toxic

SMILES | Activity [1] | further results
Cc1ccccc1/C=C/c1cc(C(C)(C)C)c(OCC(O)CNC(C)C)c(C(C)(C)C)c1 (configuration not stated) | 42% | 
CC(C)NCC(O)COc1c(C(C)(C)C)cc([S+]([O-])c2ccc(Cl)cc2)cc1C(C)(C)C.O=C(O)/C=C\C(=O)O (configuration not stated) | 23% | ED25 [2]: 45 mg/kg; MTD at 504 h [3]: 75 mg/kg; Activity [5]: Non-toxic
CC(C)NCC(O)COc1c(C(C)(C)C)cc(Sc2ccccc2)cc1C(C)(C)C (configuration not stated) | inactive | 
CC(C)NCC(O)COc1c(C(C)(C)C)cc(/C=C/c2ccc(Cl)cc2)cc1C(C)(C)C (configuration not stated) | 22% | ED25 [2]: 100 mg/kg; MTD at 504 h [3]: 100 mg/kg; selectivity ratio [4]: 1; Activity [5]: Non-toxic
CC(C)(C)NCC(O)COc1c(C(C)(C)C)cc(/C=C/c2ccccc2)cc1C(C)(C)C (configuration not stated) | 20% | 
CC(C)NCC(O)COc1c(C(C)(C)C)cc(/C=C/c2ccccc2Cl)cc1C(C)(C)C (configuration not stated) | inactive | 
CC(C)NCC(O)COc1c(C(C)(C)C)cc(/C=C/c2ccccc2)cc1C(C)(C)C (configuration not stated) [listing 1 of 2 here] |  | Activity [6]: inactive
COc1ccc(-c2cc(C(C)(C)C)c(OCC(O)CNC(C)C)c(C(C)(C)C)c2)cc1 (configuration not stated) | inactive | 
CC(C)(C)c1cc(/C=C/c2ccccc2)cc(C(C)(C)C)c1OCC(O)CNCCO (configuration not stated) | inactive | 
CC(C)NCC(O)COc1c(C(C)(C)C)cc(-c2ccc(Cl)cc2)cc1C(C)(C)C (configuration not stated) | 36% | ED25 [2]: 30 mg/kg; MTD at 504 h [3]: 100 mg/kg; selectivity ratio [4]: 3.6; Activity [5]: Non-toxic
COc1ccc(/C=C/c2cc(C(C)(C)C)c(OCC(O)CNC(C)C)c(C(C)(C)C)c2)cc1Br (configuration not stated) | inactive | 
Cc1cc(/C=C/c2ccccc2)cc(C(C)(C)C)c1OCC(O)CNC(C)C (configuration not stated) | inactive | 
CC(C)NCC(O)COc1c(C(C)C)cc(/C=C/c2ccccc2)cc1C(C)C (configuration not stated) | 20% | 
CCC(C)c1cc(/C=C/c2ccccc2)cc(C(C)CC)c1OCC(O)CNC(C)C (configuration not stated) | inactive | 
CCNCC(O)COc1c(C(C)(C)C)cc(/C=C/c2ccccc2)cc1C(C)(C)C (configuration not stated) | 24% | 
CC(C)NCC(O)COc1c(C(C)(C)C)cc(/C=C/c2cccc3ccccc23)cc1C(C)(C)C (configuration not stated) | inactive | 
CC(C)NCC(O)COc1ccc(Sc2ccc(Cl)cc2)cc1 (configuration not stated) | 22% | 
CC(C)(C)c1cc(/C=C/c2ccccc2)cc(C(C)(C)C)c1OCC(O)CNCc1ccccc1 (configuration not stated) | inactive | 
CC(C)NCC(O)COc1c(C(C)(C)C)cc(/C=C/c2ccccc2)cc1C(C)(C)C (single isomer, unassigned; (+)) | inactive | 
CC(C)NCC(O)COc1ccc(C#Cc2ccccc2)cc1 (configuration not stated) | 28% | 
CC(C)NCC(O)COc1ccc(S(=O)(=O)c2ccc(Cl)cc2)cc1 (configuration not stated) | inactive | 
CCCCNCC(O)COc1c(C(C)(C)C)cc(/C=C/c2ccccc2)cc1C(C)(C)C (configuration not stated) | 25% | 

SMILES | Activity [1] | further results
CCC(C)NCC(O)COc1c(C(C)(C)C)cc(/C=C/c2ccccc2)cc1C(C)(C)C (configuration not stated) | 23% | 
CC(C)NCC(O)COc1c(C(C)(C)C)cc(/C=C/c2ccc(Cl)c(Cl)c2)cc1C(C)(C)C (configuration not stated) | inactive | 
CC(C)NCC(O)COc1ccc([S+]([O-])c2ccc(Cl)cc2)cc1 (configuration not stated) | inactive | 
COc1ccc(/C=C/c2cc(C(C)(C)C)c(OCC(O)CNC(C)(C)C)c(C(C)(C)C)c2)cc1Br (configuration not stated) | inactive | 
CC(C)NCC(O)COc1c(C(C)(C)C)cc(/C=C/c2ccc(F)cc2)cc1C(C)(C)C (configuration not stated) | inactive | 
CC(C)NCC(O)COc1c(C(C)(C)C)cc(Oc2ccc(Cl)cc2)cc1C(C)(C)C (configuration not stated) | inactive | 
CCCCCCNCC(O)COc1c(C(C)(C)C)cc(/C=C/c2ccccc2)cc1C(C)(C)C (configuration not stated) | inactive | 
Cc1cc(/C=C/c2ccccc2)cc(C)c1OCC(O)CNC(C)C (configuration not stated) | 31% | 
CC(C)CNCC(O)COc1c(C(C)(C)C)cc(/C=C/c2ccccc2)cc1C(C)(C)C (configuration not stated) | inactive | 
CCc1cc(/C=C/c2ccccc2)cc(CC)c1OCC(O)CNC(C)C (configuration not stated) |  | Activity [6]: 20%; ED25 [2]: 45 mg/kg; MTD at 504 h [3]: 75 mg/kg; selectivity ratio [4]: 1.7; Activity [5]: Non-toxic
CC(C)NCC(O)COc1c(C(C)(C)C)cc(/C=C/c2cccc(Cl)c2)cc1C(C)(C)C (configuration not stated) | 21% | ED25 [2]: 72 mg/kg; MTD at 504 h [3]: 100 mg/kg; selectivity ratio [4]: 1.4; Activity [5]: Non-toxic
CC(C)NCC(O)COc1c(C(C)(C)C)cc(/C=C/c2ccc(Br)cc2)cc1C(C)(C)C (configuration not stated) |  | Activity [6]: 31%; ED25 [2]: 34 mg/kg; MTD at 504 h [3]: 150 mg/kg; selectivity ratio [4]: 4.3; Activity [5]: Non-toxic
CCc1cc(/C=C/c2ccccc2C(F)(F)F)cc(CC)c1OCC(O)CNC(C)C (configuration not stated) | 20% | 
CCCCN(CCCC)CCCNCC(O)COc1c(C(C)(C)C)cc(/C=C/c2ccccc2)cc1C(C)(C)C.O=C(O)/C=C\C(=O)O (configuration not stated) | 25% | 
CCCNCC(O)COc1c(C(C)(C)C)cc(/C=C/c2ccccc2)cc1C(C)(C)C (configuration not stated) | inactive | 
CC(C)NCC(O)COc1c(C(C)(C)C)cc(/C=C/c2ccc([N+](=O)[O-])cc2)cc1C(C)(C)C (configuration not stated) | 45% | 
CC(C)(C)c1cc(/C=C/c2ccccc2)cc(C(C)(C)C)c1OCC(O)CNC1CC1 (configuration not stated) | inactive | 
CC(C)NCC(O)COc1ccc(-c2ccccc2)cc1 (configuration not stated) | 24% | 
CC(C)NCC(O)COc1c(C(C)(C)C)cc(/C=C/c2ccc3c(c2)OCO3)cc1C(C)(C)C (configuration not stated) | inactive | 
CC(C)NCC(O)COc1c(C(C)(C)C)cc(/C=C/c2ccccc2)cc1C(C)(C)C (configuration not stated) [listing 2 of 2 here] | 39% | 
